The test system of assay [1] is Septoria nodorum. Briefly: Leaf disk assay, Septoria nodorum (wheat glume blotch). It counts as in vivo. The note with it: for pest or weed control at 200 ppm: Parastagonospora nodorum, foliar, 96 h, read-out: control of fungal infection.
The test system of assay [2] is Pyricularia oryzae. Description: whole plant or invertebrate. It counts as in vivo. The note with it: foliar, 96 h, read-out: control of fungal infection.
The test system of assay [3] is Plasmopara viticola. Briefly: Leaf disk assay, Plasmopara viticola (downy mildew of grapevine). It counts as in vivo. The settings on record: foliar, 168 h, read-out: control of fungal infection.
The subject of assay [4] is Pythium ultimum. Briefly: Pythium ultimum (damping off) growth inhibition in potato dextrose broth, photometric. It counts as cell-based. The note with it: Globisporangium ultimum, read-out: control of fungal infection.
In assay [5] the test system is Phytophthora infestans. Briefly: whole plant or invertebrate. It is filed as in vivo. The note with it: in Solanum lycopersicum, foliar, 96 h, read-out: control of fungal infection.
The subject of assay [6] is Erysiphe graminis f.sp. tritici. Briefly: Leaf disk assay, Erysiphe graminis f.sp. tritici (wheat powdery mildew). It counts as in vivo. The settings on record: Blumeria graminis, foliar, 96 h, read-out: control of fungal infection.
Where [7] appears, read: 200 ppm, wheat leaf segments, preventive, four days after inoculation.
The mark [8] stands for this setting: 200 ppm, grapevine leaf disks, preventive, seven days after inoculation.
Where [9] appears, read: 20 ppm, inhibition of growth after 48 hours at 24° C.

Like-named read-outs stand apart in the source and are kept apart here. Where only a bound is given, the exact number is not on record here.

Regarding `C#CC(C)(C)NC(=O)C(Oc1cc(C)c2ncc(Br)cc2c1)SC` (stereo not shown) [2(4), 2-(3-Bromo-8-methyl-quinolin-6-yloxy)-N-(1,1-dimethyl-prop-2-ynyl)-2-methylsulfanyl-acetamide], the pest or weed control at 200 ppm in assay [1] (setting [7]), in assay [2], in assay [3] (setting [8]), in assay [5] and in assay [6] (setting [7]) was not below 60% in each case. Moreover, in assay [4] (setting [9]), the inhibition of growth at 20 ppm is not below 60%.
As for `COCC#CC(C)(C)NC(=O)C(Oc1cc(C)c2ncc(Br)cc2c1)SC` (stereo not shown) [3(4), 2-(3-Bromo-8-methyl-quinolin-6-yloxy)-N-(4-methoxy-1,1-dimethyl-but-2-ynyl)-2-methylsulfanyl-acetamide], the pest or weed control at 200 ppm in assay [1], in assay [2], in assay [3], in assay [5] and in assay [6] was not below 60% each time.
In the case of `C#CC(C)(CC)NC(=O)C(Oc1cc(C)c2ncc(Br)cc2c1)SC` (stereo not shown) [7(4), 2-(3-Bromo-8-methyl-quinolin-6-yloxy)-N-(1-ethyl-1-methyl-prop-2-ynyl)-2-methylsulfanyl-acetamide], the pest or weed control at 200 ppm in assay [1] (setting [7]), in assay [2], in assay [3] (setting [8]) and in assay [6] (setting [7]) was not below 60% each time.
Consider `CC#CC(C)(C)NC(=O)C(Oc1cc(C)c2ncc(Cl)cc2c1)SC` (stereo not shown) [18(4), 2-(3-Chloro-8-methyl-quinolin-6-yloxy)-N-(1,1-dimethyl-but-2-ynyl)-2-methylsulfanyl-acetamide], for which the pest or weed control at 200 ppm in assay [1], in assay [2], in assay [3], in assay [5] and in assay [6] was not below 60% in each case. The inhibition of growth at 20 ppm in assay [4] (48 h) was not below 60%.
As for `COCC#CC(C)(C)NC(=O)C(Oc1cc(C)c2ncc(Cl)cc2c1)SC` (stereo not shown) [19(4), 2-(3-Chloro-8-methyl-quinolin-6-yloxy)-N-(4-methoxy-1,1-dimethyl-but-2-ynyl)-2-methylsulfanyl-acetamide], the pest or weed control at 200 ppm in assay [3], in assay [5] and in assay [6] was not below 60% throughout. In addition, the inhibition of growth at 20 ppm in assay [4] (48 h) is not below 60%.
Take `COCCC#CC(C)(C)NC(=O)C(Oc1cc(C)c2ncc(Cl)cc2c1)SC` (stereo not shown) [21(4), 2-(3-Chloro-8-methyl-quinolin-6-yloxy)-N-(5-methoxy-1,1-dimethyl-pent-2-ynyl)-2-methylsulfanyl-acetamide]: the pest or weed control at 200 ppm in assay [3], in assay [5] and in assay [6] was not below 60% throughout. In addition, the inhibition of growth at 20 ppm in assay [4] (48 h) is not below 60%.
Consider `CSC(Oc1cc(C)c2ncc(Br)cc2c1)C(=O)NC(C)(C)C#C/C=C/CO` (stereo not shown) [24(4), 2-(3-Bromo-8-methyl-quinolin-6-yloxy)-N-((E)-6-hydroxy-1,1-dimethyl-hex-4-en-2-ynyl)-2-methylsulfanyl-acetamide], for which the pest or weed control at 200 ppm in assay [3] (setting [8]), in assay [5] and in assay [6] (setting [7]) was not below 60% each time. The inhibition of growth at 20 ppm in assay [4] (setting [9]) is not below 60%.
With `C=CCOCC#CC(C)(C)NC(=O)C(Oc1cc(C)c2ncc(Br)cc2c1)SC` (stereo not shown) [28(4), N-(4-Allyloxy-1,1-dimethyl-but-2-ynyl)-2-(3-bromo-8-methyl-quinolin-6-yloxy)-2-methylsulfanyl-acetamide], the pest or weed control at 200 ppm in assay [1], in assay [5] and in assay [6] was not below 60% each time. Also, the inhibition of growth at 20 ppm in assay [4] (48 h) was not below 60%.
As to `C#CCOCC#CC(C)(C)NC(=O)C(Oc1cc(C)c2ncc(Br)cc2c1)SC` (stereo not shown) [29(4), 2-(3-Bromo-8-methyl-quinolin-6-yloxy)-N-(1,1-dimethyl-4-prop-2-ynyloxy-but-2-ynyl)-2-methylsulfanyl-acetamide], the pest or weed control at 200 ppm in assay [2] and in assay [6] was not below 60% in each case.
As for `CSC(Oc1cc(C)c2ncc(Br)cc2c1)C(=O)NC(C)(C)C#CCO` (stereo not shown) [30(4), 2-(3-Bromo-8-methyl-quinolin-6-yloxy)-N-(4-hydroxy-1,1-dimethyl-but-2-ynyl)-2-methylsulfanyl-acetamide], the pest or weed control at 200 ppm in assay [1], in assay [2], in assay [5] and in assay [6] was not below 60% each time. Further, the inhibition of growth at 20 ppm in assay [4] (48 h) was not below 60%.
In the case of `C#CC(C)(C)NC(=O)C(Oc1cc(CC)c2ncc(Br)cc2c1)SC` (stereo not shown) [33(4), 2-(3-Bromo-8-ethyl-quinolin-6-yloxy)-N-(1,1-dimethyl-prop-2-ynyl)-2-methylsulfanyl-acetamide], the pest or weed control at 200 ppm in assay [1] (setting [7]), in assay [2], in assay [3] (setting [8]) and in assay [6] (setting [7]) was not below 60% each time. For the same compound, the inhibition of growth at 20 ppm in assay [4] (setting [9]) was not below 60%.
Consider `CCc1cc(OC(SC)C(=O)NC(C)(C)C#CCOC)cc2cc(Br)cnc12` (stereo not shown) [35(4), 2-(3-Bromo-8-ethyl-quinolin-6-yloxy)-N-(4-methoxy-1,1-dimethyl-but-2-ynyl)-2-methylsulfanyl-acetamide], for which the pest or weed control at 200 ppm in assay [1], in assay [2], in assay [3], in assay [5] and in assay [6] was not below 60% throughout. In assay [4] (48 h), the inhibition of growth at 20 ppm is not below 60%.
For `C#CC(C)(C)NC(=O)C(Oc1cc(C)c2ncc(Cl)cc2c1)SC` (stereo not shown) [Compound 17(4), 2-(3-Chloro-8-methyl-quinolin-6-yloxy)-N-(1,1-dimethyl-prop-2-ynyl)-2-methylsulfanyl-acetamide], the “Efficacy (%)” value in assay [1] (20 ppm, preventive, four days after inoculation) is 80%; in assay [1] (60 ppm, preventive, four days after inoculation), 100%; in assay [1] (200 ppm, preventive, four days after inoculation), 100%. The pest or weed control at 200 ppm in assay [1] (setting [7]), in assay [2], in assay [3] (setting [8]), in assay [5] and in assay [6] (setting [7]) was not below 60% throughout. The inhibition of growth at 20 ppm in assay [4] (setting [9]) was not below 60%.

These data come from patent US20100256183A1, “FUNGICIDAL 2-ALKYLTHIO-2-QUINOLINYLOXY-ACETAMIDE DERIVATIVES” (priority 2007, published 2010).
